In BindingDB's records for doi:10.1016/s0196-9781(98)00023-0 (Hungarian Academy of Sciences, 1998):
“And” between values parts separate entries of the source, which are not always exact repeats. Equal entries are not always repeated. Non-standard residues stand in square brackets, D forms with d. Residues, ends and D or L forms follow the SMILES beside them. Tic = O=C(O)[C@@H]1Cc2ccccc2CN1

Assays:
[1] = molecular target: Delta-type opioid receptor (Rattus norvegicus, UniProt P33533)
Mu-type opioid receptor = Mu-type opioid receptor (Rattus norvegicus, UniProt P33535)
Mu-type opioid receptor, sequence (P33535 whole entry): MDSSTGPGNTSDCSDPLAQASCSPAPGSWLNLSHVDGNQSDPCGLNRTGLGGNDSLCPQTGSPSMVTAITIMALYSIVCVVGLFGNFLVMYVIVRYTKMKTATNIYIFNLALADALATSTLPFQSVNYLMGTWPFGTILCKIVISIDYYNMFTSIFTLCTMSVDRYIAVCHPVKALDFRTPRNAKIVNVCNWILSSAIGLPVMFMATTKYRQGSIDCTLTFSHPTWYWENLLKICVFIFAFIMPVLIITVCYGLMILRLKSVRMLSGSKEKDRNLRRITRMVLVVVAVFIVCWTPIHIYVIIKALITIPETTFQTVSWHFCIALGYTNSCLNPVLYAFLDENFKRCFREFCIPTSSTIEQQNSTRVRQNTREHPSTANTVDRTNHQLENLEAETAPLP

Delta-type opioid receptor, sequence (P33533 whole entry): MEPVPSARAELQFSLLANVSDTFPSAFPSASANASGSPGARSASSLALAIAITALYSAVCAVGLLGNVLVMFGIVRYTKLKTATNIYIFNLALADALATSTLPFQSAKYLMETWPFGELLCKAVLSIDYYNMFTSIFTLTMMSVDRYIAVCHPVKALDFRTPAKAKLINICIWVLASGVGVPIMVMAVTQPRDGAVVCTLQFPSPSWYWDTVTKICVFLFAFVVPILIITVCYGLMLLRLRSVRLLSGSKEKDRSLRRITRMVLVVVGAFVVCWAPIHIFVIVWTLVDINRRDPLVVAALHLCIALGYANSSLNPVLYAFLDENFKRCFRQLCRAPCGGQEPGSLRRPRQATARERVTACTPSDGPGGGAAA

Compound | Ki [1] | Ki (Mu-type opioid receptor)
CC(C)C[C@H](NC(=O)[C@H](Cc1ccccc1)NC(=O)CNC(=O)[C@@H](CO)NC(=O)[C@@H](N)Cc1ccc(O)cc1)C(=O)N[C@H](C(=O)O)[C@@H](C)O [DSLET-OH] | 7.34 nM and 8.71 nM | –
Oc1ccc2c3c1OC1c4[nH]c5ccccc5c4CC4(O)[C@H](C2)N(CC2CC2)CCC314 (some centres undefined) [NALTRINDOLE] | 10.8 nM and 25.7 nM | –
COc1cccc2c1[C@]13CCN(CC4CC4)C(C2)[C@]1(OC)CCC(=O)C3 | – | 4.59 nM and 7.23 nM
N[C@@H](Cc1ccc(O)cc1)C(=O)N1Cc2ccccc2C[C@H]1C(=O)N[C@@H](Cc1ccccc1)C(=O)N[C@@H](Cc1ccccc1)C(=O)O [TIPP] (H-Y[Tic]FF-OH) | 9150 nM and 1700 nM | –
